Earlier results on 1 compound are cited in patent publication US12285520B2, “Product and manufacturing process for a gum” (McNeil AB, priority 2020, dated 2025).

The conditions of this series: nicotine; stated as general knowledge, no experiment described.

For the compound `CN1CCCC1c1cccnc1` (stereo not shown) [nicotine], the pKa result was “approximately 7.8”.
